Marks after values point to notes of the source that are not given here.
How the values were obtained:
Format in all cases: cell-based, BALB/c mice
murine splenocytes [1] = test: Cytokine profile of splenocyte supernatants, RayBio Mouse Cytokine Antibody Array; conditions: peptide 2000 μg/mL + ConA 0.5 μg/mL, 72 h; Cells + ConA = 1
Experimental: Cytokine analyses. After 72 hours, the supernatants from the splenocyte cultures with the cells, cells+ConA (0.5 μg/mL), and each of the peptides (2000 μg/mL) in the presence of ConA (0.5 μg/mL) were collected and stored at −20° C. until used for the cytokine detection assay. A cytokine profile analysis was performed by using the RayBio Mouse Cytokine Antibody Array G series 2 (RayBiotech, Inc., Norcross, Ga.), in order to obtain semi-quantitative levels of 32 different growth factors, cytokines and chemokines (Table 7).
Incubation protocol, signal detection, and interpretation of the data were performed according to manufacturer instructions. Results were expressed as the relative quantity of cytokines detected in the culture supernatants calculated according to the following equation: […]

murine splenocytes [2] = test: In vitro murine splenocyte proliferation assay (Alamar Blue), Example III; conditions: for Effect on splenocyte proliferation in the presence of ConA at higher concentrations / Effect on ConA-induced proliferation at low concentrations: ConA 0.5 μg/mL; for Concentration at which stimulation of resting cell proliferation becomes significant: resting cells, dose-dependent up to 2000 μg/mL; for Effect on ConA-induced proliferation at low concentrations: 10 and 100 μg/mL
Experimental: In vitro murine splenocyte proliferation assay. The impact of whey peptides on splenocyte proliferation was assessed as follow. Spleens from 6-week-old female BALB/c mice (Charles River, St-Constant, QC, Canada) were removed, mechanically disrupted in complete RPMI-1640 medium (RPMI-1640 medium supplemented with 2 mmol L^−1 L-glutamine (Wisent, St-Bruno, QC, Canada), 10% foetal calf serum (FCS, Wisent), 50 μmol L^−1 mercaptoethanol (Sigma-Aldrich), and 100 μg mL^−1 of penicillin/streptomycin (Wisent), and then filtered through 70 μm cell strainer (BD Falcon, Bedford, Mass., USA) under aseptic conditions. Erythrocytes were lysed by osmotic shock using 0.87% NH4Cl (Sigma-Aldrich) for 2 min at 37° C., then cells were washed 3 times at 4° C. with complete RPMI. They were stained with 0.4% trypan blue (Celigro, Mediatech, Washington, D.C., USA) and counted using a Malassez chamber. The cell suspension was then adjusted to 1.25×10^6 viable cells mL^−1 in RPMI medium.
The cells (100 μL) were added to the wells of 96-well round-bottomed microplates containing 50 μL of RPMI, or 50 μL of peptide solutions. Various concentrations (10-2000 μg mL^−1) of the solutions, which were prepared in complete RPMI and adjusted to pH 7, were added to the wells. The same experiments were also performed in the presence of ConA (0.5 μg mL^−1) to evaluate the effects of the products on ConA-stimulated cells. The microplates with and without ConA were incubated for 72 h and 96 h, respectively. Cell proliferation was evaluated by the reduction of the fluorochrome Alamar Blue™ (BioSource international, Camarillo, Calif., USA), which was added to the wells (20 μL) for the last 24 h of the incubation periods. The fluorescence of the supernatants was monitored at an excitation wavelength of 544 nm and an emission wavelength of […] using a fluorometer (Fluoroscan Ascent, Thermo Electron Inc., Milford, Mass., USA). Data are expressed as a stimulation index (SI).

murine splenocytes [3] = test: Cytokine secretion in splenocyte culture supernatants by ELISA, Example I
Experimental: Cytokine analysis. The supernatants from 72 h-splenocytes cultures were collected and their cytokine content was measured. The optimal incubation times were determined from preliminary assays with peptide fractions. The levels of IL-4, IL-10 and IFN-γ were determined using commercial ELISA kits (BioLegend, San Diego, Calif., USA) according to the manufacturer's instructions. Interleukin-2 levels were also measured by ELISA using a commercial kit (BioSource International, Camarillo, Calif., USA) according to the manufacturer's instructions. The results are the means of four or more assays (three wells per sample). The detection limits for IL-2, IL-4, IL-10 and IFN-γ were <8.0, <1.0, <30.0 and <4.0 pg/mL, respectively.
Cytokine analysis were performed at concentration leading to optimal spleen cells proliferation of peptide β-Lg f139-148 (SEQ ID NO. 1) (2000 μg/mL) as reported in Tables 2 and 3. The sequence β-Lg f78-83 (SEQ ID NO. 10), resulting in no effect on the cytokine secretion of resting- and ConA-stimulated murine splenocytes (results not shown), was used as control at concentration of 10 μg/mL for statistical analysis. The effects of the selected peptide on cytokine secretion from splenocytes cultured in the absence and presence of 0.5 μg/mL of ConA are shown in Table 5.

murine splenocytes [4] = test: Ex vivo murine splenocytes proliferation assay (Alamar Blue), Example I; conditions: for Stimulation index, proliferation of murine splenocytes in the presence of Concavanalin A: ConA 0.5 μg/mL; for Stimulation index, proliferation of resting murine splenocytes: without ConA
Experimental: Ex vivo murine splenocytes proliferation assay. The splenocytes were isolated from 6- to 12-weeks-old female BALB/c mice (Charles River, St-Constant, QC, Canada) and cultured in the absence and presence of suboptimal concentration of ConA (0.5 μg/mL). The peptides were solubilized in complete RPMI medium, agitated overnight at 4° C. then the solutions were adjusted to pH 7. Thereafter, the peptide solutions were added at various final concentrations (10-2000 μg/mL, protein basis) to the wells of 96-well round-bottomed microplates, which were incubated at 37° C. at 80% relative humidity in a 5% CO2 atmosphere for 72 h (with ConA) or 96 h (without ConA). Cell proliferation was evaluated by the reduction of the fluorochrome Alamar Blue™ (BioSource international, Camarillo, Calif., USA), which was added into the wells for the last 24 h of the incubation periods. The fluorescence of the supernatants was monitored at an excitation wavelength of 560 nm and an emission wavelength of 590 nm using a fluorometer (Fluoroscan Ascent, Thermo Electron Inc., Milford, Mass., USA). The assays were performed in triplicate (three wells per sample) and data are expressed as stimulation indices (SI), and calculated using the following equations: […]

[5] = splenocytes with ConA 0.5 μg mL^−1, peptide 2000 μg mL^−1
[6] = splenocytes without ConA, peptide 2000 μg mL^−1

Substance	Relative quantity of IFN-γ in supernatant (murine splenocytes [1])	Relative quantity of IL-2 in supernatant (murine splenocytes [1])	Relative quantity of IL-3 in supernatant (murine splenocytes [1])	Relative quantity of IL-4 in supernatant (murine splenocytes [1])	Relative quantity of IL-17 in supernatant (murine splenocytes [1])	Relative quantity of RANTES in supernatant (murine splenocytes [1])	Relative quantity of VEGF in supernatant (murine splenocytes [1])	Effect on splenocyte proliferation in the presence of ConA at higher concentrations (murine splenocytes [2])	Concentration at which stimulation of resting cell proliferation becomes significant (murine splenocytes [2]) [µg/mL]	also measured
DAQSAPLR [β-Lg f33-40]	0.7	0.6	0.1	0.7	0.6	0.4	0.8	–	–	–
ALK (listed as Homo sapiens) [β-Lg f139-141]	1.0	1.7	0.7	1	1.1	1.7	0.9	lost their stimulating capacity	500	–
GLDIQK (listed as Homo sapiens) [β-Lg f9-14]	1.7	2.6	1.0	1.4	1.1	1.0	2.0	lost their stimulating capacity	–	Effect on proliferation of resting splenocytes (murine splenocytes [2]; 10-2000 μg/mL, without ConA): only a small stimulation at the highest concentration
His-Ile-Arg (HIR; listed as Homo sapiens) [β-Lg f146-148]	8.6	2.1	1.8	0.5	1.4	0.8	4.8	lost their stimulating capacity	500	Stimulation index (SI), proliferation of resting splenocytes (murine splenocytes [2]; 500 μg/mL, without ConA): 1.20; Stimulation index (SI), proliferation of resting splenocytes (murine splenocytes [2]; 1000 μg/mL, without ConA): 1.36; Stimulation index (SI), proliferation of resting splenocytes (murine splenocytes [2]; 2000 μg/mL, without ConA): 1.37; Effect on ConA-induced proliferation at low concentrations (murine splenocytes [2]): inhibited
ALKALPMHIR (listed as Homo sapiens) [β-Lg f139-148]	–	–	–	–	–	–	–	–	–	IFN-γ secretion in supernatant (murine splenocytes [3]; [5]): 717.5** pg mL^−1; IL-2 secretion in supernatant (murine splenocytes [3]; [5]): 15.8 pg/mL; IL-4 secretion in supernatant (murine splenocytes [3]; [5]): 3.0** pg mL^−1; IL-10 secretion in supernatant (murine splenocytes [3]; [5]): <30.0 pg/mL; IFN-γ secretion in supernatant (murine splenocytes [3]; [6]): 81.3** pg mL^−1; IL-2 secretion in supernatant (murine splenocytes [3]; [6]): 9.3 pg/mL; IL-4 secretion in supernatant (murine splenocytes [3]; [6]): <1.0 pg/mL; IL-10 secretion in supernatant (murine splenocytes [3]; [6]): <30.0 pg/mL; Stimulation index, proliferation of murine splenocytes in the presence of Concavanalin A (murine splenocytes [4]; peptide 10 μg mL^−1, 72 h): 2.28; Stimulation index, proliferation of resting murine splenocytes (murine splenocytes [4]; peptide 10 μg mL^−1, 96 h): 1.08*; Stimulation index, proliferation of murine splenocytes in the presence of Concavanalin A (murine splenocytes [4]; peptide 100 μg mL^−1, 72 h): 2.24; Stimulation index, proliferation of resting murine splenocytes (murine splenocytes [4]; peptide 100 μg mL^−1, 96 h): 1.17**; Stimulation index, proliferation of murine splenocytes in the presence of Concavanalin A (murine splenocytes [4]; peptide 500 μg mL^−1, 72 h): 2.36*; Stimulation index, proliferation of resting murine splenocytes (murine splenocytes [4]; peptide 500 μg mL^−1, 96 h): 1.35**; Stimulation index, proliferation of murine splenocytes in the presence of Concavanalin A (murine splenocytes [4]; peptide 1000 μg mL^−1, 72 h): 2.62**; Stimulation index, proliferation of resting murine splenocytes (murine splenocytes [4]; peptide 1000 μg mL^−1, 96 h): 1.53**; Stimulation index, proliferation of murine splenocytes in the presence of Concavanalin A (murine splenocytes [4]; peptide 2000 μg mL^−1, 72 h): 2.73**; Stimulation index, proliferation of resting murine splenocytes (murine splenocytes [4]; peptide 2000 μg mL^−1, 96 h): 1.77**
Asp-Thr-Asp-Tyr (DTDY; listed as Homo sapiens) [β-Lg f96-99]	4.5	3.6	2.8	1.8	1.7	1.4	2.3	lost their stimulating capacity	500	Effect on ConA-induced proliferation at low concentrations (murine splenocytes [2]): inhibited
VLVLDTDYKKYLLF (listed as Homo sapiens) [β-Lg f92-105]	–	–	–	–	–	–	–	–	–	Stimulation index, proliferation of murine splenocytes in the presence of Concavanalin A (murine splenocytes [4]; peptide 10 μg mL^−1, 72 h): 1.92; Stimulation index, proliferation of resting murine splenocytes (murine splenocytes [4]; peptide 10 μg mL^−1, 96 h): 1.00; Stimulation index, proliferation of murine splenocytes in the presence of Concavanalin A (murine splenocytes [4]; peptide 100 μg mL^−1, 72 h): 1.92; Stimulation index, proliferation of resting murine splenocytes (murine splenocytes [4]; peptide 100 μg mL^−1, 96 h): 1.07; Stimulation index, proliferation of murine splenocytes in the presence of Concavanalin A (murine splenocytes [4]; peptide 500 μg mL^−1, 72 h): 2.27**; Stimulation index, proliferation of resting murine splenocytes (murine splenocytes [4]; peptide 500 μg mL^−1, 96 h): 1.15**; Stimulation index, proliferation of murine splenocytes in the presence of Concavanalin A (murine splenocytes [4]; peptide 1000 μg mL^−1, 72 h): 2.37**; Stimulation index, proliferation of resting murine splenocytes (murine splenocytes [4]; peptide 1000 μg mL^−1, 96 h): 1.31**; Stimulation index, proliferation of murine splenocytes in the presence of Concavanalin A (murine splenocytes [4]; peptide 2000 μg mL^−1, 72 h): 2.69**; Stimulation index, proliferation of resting murine splenocytes (murine splenocytes [4]; peptide 2000 μg mL^−1, 96 h): 1.55**

Reference: patent US20090297545A1, “IMMUNOMODULATORY DAIRY PEPTIDES AND USES THEREOF” (Universite Laval, priority 2008, published 2009)
